Assay [1] relates to MCL-1ΔNΔC, BCL-2ΔC, BCL-XLΔC, BCL-wΔC and BFL-1/A1ΔC. Description: FPA selectivity across panel of anti-apoptotic proteins. In kind it is binding. Conditions: FPA against anti-apoptotic panel. Here is the method: (§1) Binding assays were performed as previously described (Pitter et al., Methods Enzymol 446, 387 (2008). Briefly, FITC-SAHB (50 nM) was added to serial dilutions of FPLC-purified recombinant protein in binding buffer (50 mM Tris, 100 mM NaCl, pH 8.0). For competition assays, serial dilutions of acetylated MCL-1 SAHBs were mixed with FITC-BAK SAHB (25 nM), followed by addition of MCL-1ΔNΔC (100 nM) diluted in binding buffer (50 mM Tris, 100 mM NaCl, pH 8.0). Multiwell plates were incubated in the dark at room temperature until equilibrium was reached and fluorescence polarization (mP units) was measured by microplate reader (SpectraMax, Molecular Devices). For direct binding experiments, dissociation constants (KD) were calculated by nonlinear regression analysis of dose-response curves using Prism software (Graphpad). For competition experiments, Ki values were determined by nonlinear regression analysis of dose-response curves using a one-site competition model.
Compounds that bound MCL-1 with high affinity were analyzed for MCL-1 selectivity by measuring SAHB affinities for recombinant BCL-XLΔC, BCL-WΔC and BFL-1/A1ΔC (FIG. 8B). Recombinant carboxy-terminal deleted anti-apoptotic proteins were expressed using the pGEX-4T vector, and purified as described for rMCL-1. The purified proteins were incubated with FITC-SAHBs, and binding affinities were analyzed by fluorescence polarization assay as described above. […] Optionally, design and optimization of tailored SAHB compounds for anti-apoptotic targeting also employed computational modeling.
After the experiments set forth above, further members of the library of stabilized alpha-helices of BCL-2 domains (SAHBs) modeled after the BH3 domains of BCL-2 family proteins were generated in order to identify potent and selective inhibitors of MCL-1. The native alpha-helical structure of BH3 domains was reinforced by incorporating non-natural amino acids containing olefin tethers at the (i, i+4) positions of the non-interacting face, followed by ruthenium catalyzed olefin metathesis to yield a panel of stapled BH3 domains (FIG. 7). Fluorescence polarization assays (FPA) were performed to measure the binding affinity of fluorescently labeled SAHBs for recombinant human MCL-1ΔNΔC (amino acids 172-320), a deletion construct that contains the BH3-binding pocket and affords enhanced expression, purity, and stability. […] To identify MCL-1-selective SAHBs, we first screened for recombinant BCL-XLΔC binding, which eliminated PUMA, BID, BIM, BOK, BAX, and BAK SAHBs and then for recombinant BFL1/A1ΔC binding, which eliminated NOXA SAHB.

Assay [2] concerns the target recombinant BCL-XLΔC (Homo sapiens, UniProt Q07817). Description: Fluorescence polarization direct binding of FITC-SAHBs to BCL-XLΔC. Conditions: FPA. The procedure: as §1
Recombinant carboxy-terminal deleted anti-apoptotic proteins were expressed using the pGEX-4T vector, and purified as described for rMCL-1. The purified proteins were incubated with FITC-SAHBs, and binding affinities were analyzed by fluorescence polarization assay as described above. […] Optionally, design and optimization of tailored SAHB compounds for anti-apoptotic targeting also employed computational modeling.
Background: Polarisation of emitted light reports the rotation of a fluorescent probe.

Assay [3] deals with Jurkat T-cell leukemia cells. Description: Cell viability by MTT assay, Jurkat. Format: cell-based. Here is the method: (§2) For viability testing, OPM2 and Jurkat cells (4×10^4) were treated with the indicated agents in Opti-MEM media at 37° C. in a final volume of 100 μL. Cell viability was measured at 24 hours by MTT assay, for which cells were incubated with 20 μL thiazolyl blue tetrazolium bromide (5 mg/mL in DPBS) at 37° C. for 4 hours, the precipitate solubilized with 0.1 N HCl isopropanol (100 μL), and absorbance measured at 570 nm and 650 nm.
A general note: Tetrazolium dyes change colour on reduction, which living cells bring about.

The test system of assay [4] is OPM2 multiple myeloma cells. Description: Cell viability by MTT assay, OPM2. Format: cell-based. The note with it: MTT at 24 hours. The procedure: as §2, with “OPM2 multiple myeloma cells and Jurkat T-cell leukemia were passaged and maintained in RPMI 1640 medium (Invitrogen) supplemented with 10% fetal bovine serum, 100 U/mL penicillin, 100 μg/mL streptomycin, 2 mM L-glutamine, 50 mM HEPES and 50 μM β-mercaptoethanol. For” for “For”

Entries after “also recorded” stand apart in the source; their conditions may differ. Where a SMILES comes first, the peptide text is derived from it. Bridges are numbered along the chain shown (N, C = ends). [ ]: non-standard residue; d: D form. The star is where a group is joined. S5 = C=CCCC[C@](C)(N)C(=O)O; Nle = CCCC[C@H](N)C(=O)O; Cbz = O=C(OCc1ccccc1)*; CH2F = FC*

Chain of recombinant BCL-XLΔC (Q07817 1-209, stated change not applied): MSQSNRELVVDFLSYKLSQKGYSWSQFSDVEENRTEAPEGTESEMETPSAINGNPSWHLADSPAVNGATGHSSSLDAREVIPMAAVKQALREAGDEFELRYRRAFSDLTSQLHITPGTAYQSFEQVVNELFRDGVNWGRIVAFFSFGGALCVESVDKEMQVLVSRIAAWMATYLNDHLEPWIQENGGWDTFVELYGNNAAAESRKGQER

For the molecule `CC[C@H](C)[C@@H]1NC(=O)[C@@](C)(NC(=O)[C@H](C)NC(=O)[C@H](CC(C)C)NC(=O)[C@H](CCC(N)=O)NC(=O)[C@H](CCCNC(=N)N)NC(=O)CNC(=O)[C@@H](NC(=O)[C@@H](N)CCC(N)=O)C(C)C)CCCC=CCCC[C@@](C)(C(=O)N[C@H](C(=O)N[C@@H](CC(N)=O)C(=O)N[C@@H](CCCNC(=N)N)C(=O)N[C@@H](CCCNC(=N)N)C(=O)N[C@@H](Cc2ccc(O)cc2)C(=O)N[C@@H](CC(=O)O)C(N)=O)[C@@H](C)CC)NC(=O)[C@H](CC(=O)O)NC(=O)CNC1=O` [BAK SAHB] (H-QVGRQLA[S5]IGD[S5]INRRYD-NH2; staple 8-12; C-terminus assumed), the “binding selectivity among anti-apoptotic proteins” value in assay [1] was “high affinity pan-anti-apoptotic binders”. Also, the “BCL-XL binding” value in assay [2] is “eliminated”.
On to `CC[C@H](C)[C@@H]1NC(=O)[C@@](C)(NC(=O)[C@H](CCCCN)NC(=O)[C@H](CC(C)C)NC(=O)[C@H](CO)NC(=O)[C@H](CCC(=O)O)NC(=O)[C@H](CO)NC(=O)[C@H](CC(C)C)NC(=O)[C@H](CCCCN)NC(=O)[C@H](CCCCN)NC(=O)[C@@H](NC(=O)[C@H](CO)NC(=O)[C@H](C)N)[C@@H](C)O)CCCC=CCCC[C@@](C)(C(=O)N[C@@H](CC(C)C)C(=O)N[C@@H](CC(=O)O)C(=O)N[C@@H](CO)C(=O)N[C@@H](CC(N)=O)C(N)=O)NC(=O)[C@H](CC(=O)O)NC(=O)CNC1=O` [BAX SAHB] (H-ASTKKLSESLK[S5]IGD[S5]LDSN-NH2; staple 12-16; C-terminus assumed), for which the “BCL-XL binding” value in assay [2] was “eliminated”.
Turning to `CCCC[C@H](NC(=O)[C@]1(C)CCCC=CCCC[C@](C)(NC(=O)[C@H](C)NC(=O)[C@H](CC(C)C)NC(=O)[C@H](Cc2c[nH]cn2)NC(=O)[C@H](CCCNC(=N)N)NC(=O)[C@H](C)NC(=O)[C@@H](NC(=O)[C@H](CC(N)=O)NC(=O)[C@H](CCCNC(=N)N)NC(=O)[C@@H](NC(=O)[C@@H](NC(=O)[C@@H](N)CC(=O)O)[C@@H](C)CC)[C@@H](C)CC)[C@@H](C)CC)C(=O)N[C@@H](C(C)C)C(=O)NCC(=O)N[C@@H](CC(=O)O)C(=O)N1)C(=O)N[C@@H](CC(=O)O)C(=O)N[C@@H](CCCNC(=N)N)C(=O)N[C@@H](CO)C(=O)N[C@H](C(=O)N[C@@H](CCCNC(=N)N)C(=O)N[C@@H](CCCNC(=N)N)C(N)=O)[C@@H](C)CC` [BID SAHB] (H-DIIRNIARHLA[S5]VGD[S5][Nle]DRSIRR-NH2; staple 12-16; C-terminus assumed), the “BCL-XL binding” value in assay [2] was “eliminated”.
For the molecule `CC[C@H](C)[C@H](N)C(=O)N[C@@H](Cc1c[nH]c2ccccc12)C(=O)N[C@H](C(=O)N[C@@H](C)C(=O)N[C@@H](CCC(N)=O)C(=O)N[C@@H](CCC(=O)O)C(=O)N[C@@H](CC(C)C)C(=O)N[C@@H](CCCNC(=N)N)C(=O)N[C@@]1(C)CCCC=CCCC[C@@](C)(C(=O)N[C@@H](Cc2ccccc2)C(=O)N[C@@H](CC(N)=O)C(=O)N[C@@H](C)C(=O)N[C@@H](Cc2ccc(O)cc2)C(=O)N[C@@H](Cc2ccc(O)cc2)C(=O)N[C@@H](C)C(=O)N[C@@H](CCCNC(=N)N)C(=O)N[C@@H](CCCNC(=N)N)C(N)=O)NC(=O)[C@H](CC(=O)O)NC(=O)CNC(=O)[C@H]([C@@H](C)CC)NC1=O)[C@@H](C)CC` [BIM SAHB], the “binding selectivity among anti-apoptotic proteins” value in assay [1] was “pan-anti-apoptotic binder”. The “BCL-XL binding” value in assay [2] is listed as “eliminated”.
In the case of `CCCC[C@H](NC(=O)[C@H](CCC(=O)O)NC(=O)[C@H](CC(C)C)NC(=O)[C@]1(C)CCCC=CCCC[C@](C)(NC(=O)[C@H](CC(C)C)NC(=O)[C@H](CC(C)C)NC(=O)[C@@H](NC(=O)[C@H](C)NC(=O)[C@H](CO)NC(=O)[C@@H](NC(=O)[C@H](CCC(=O)O)NC(=O)[C@H](C)NC(=O)[C@H](CC(C)C)NC(=O)[C@@H](N)CCCNC(=N)N)C(C)C)C(C)C)C(=O)N[C@@H](CC(C)C)C(=O)NCC(=O)N[C@@H](CC(=O)O)C(=O)N1)C(=O)N[C@H](C(=O)N[C@@H](CCCNC(=N)N)C(N)=O)[C@@H](C)CC` [BOK SAHB] (H-RLAEVSAVLL[S5]LGD[S5]LE[Nle]IR-NH2; staple 11-15; C-terminus assumed), in assay [1], the “binding selectivity among anti-apoptotic proteins” value is given as “significant preference for MCL-1 over the other anti-apoptotics”. In addition, in assay [2], the “BCL-XL binding” value is “eliminated”.
Consider `CCCC[C@@H]1NC(=O)[C@@](C)(NC(=O)[C@H](CCCNC(=N)N)NC(=O)[C@H](CC(C)C)NC(=O)[C@H](CCC(N)=O)NC(=O)[C@H](C)NC(=O)CNC(=O)[C@@H](NC(=O)[C@H](CCC(=O)O)NC(=O)[C@H](CCCNC(=N)N)NC(=O)[C@H](C)NC(=O)[C@H](Cc2c[nH]c3ccccc23)NC(=O)[C@@H](N)CCC(N)=O)[C@@H](C)CC)CCCC=CCCC[C@@](C)(C(=O)N[C@@H](CC(C)C)C(=O)N[C@@H](CC(N)=O)C(=O)N[C@@H](C)C(=O)N[C@@H](CCC(N)=O)C(=O)N[C@@H](Cc2ccc(O)cc2)C(N)=O)NC(=O)[C@H](CC(=O)O)NC(=O)[C@H](C)NC1=O` [PUMA SAHB] (H-QWAREIGAQLR[S5][Nle]AD[S5]LNAQY-NH2; staple 12-16; C-terminus assumed), for which the “BCL-XL binding” value in assay [2] is recorded as “eliminated”.
`CC(NC(=O)C(NC(=O)OCc1ccccc1)C(C)C)C(=O)NC(CC(=O)O)C(=O)CF` (stereo not drawn) [z-VAD, reference compound] (Cbz-Val-Ala-Asp-CH2F; configuration not given here): in assay [3] (z-VAD 50 μM with MCL-1 SAHBD plus TRAIL/FasL, Jurkat and OPM2 cells), the “effect of pan-caspase inhibitor on MCL-1 SAHBD-induced sensitization” value was “completely abrogated the negative effects on cell viability”.
LEVESXTQLXRFGDKLNFRQKL [NOXA SAHBB]: the “sensitization of Jurkat cells to FasL” value in assay [3] (combined with low dose FasL, MTT at 24 hours) was “behaved identically to MCL-1 SAHBD; also recorded: sensitized the apoptotic response of Jurkat cells to TRAIL and FasL”. For the same molecule, the “sensitization of Jurkat cells to TRAIL” value in assay [3] (combined with low dose TRAIL, MTT at 24 hours) was “behaved identically to MCL-1 SAHBD; also recorded: sensitized the apoptotic response of Jurkat cells to TRAIL and FasL”. Also, the “binding selectivity among anti-apoptotic proteins” value in assay [1] was “binds MCL-1ΔNΔC exclusively; also recorded: potent and exclusive MCL-1ΔNΔC binding activity”.

B1: FasL: death receptor agonist, extrinsic pathway activator (protein, UniProt P48023 130-281, looked up)
Tumor necrosis factor ligand …: QIGHPSPPPEKKELRKVAHLTGKSNSRSMPLEWEDTYGIVLLSGVKYKKGGLVINETGLYFVYSKVYFRGQSCNNLPLSHKVYMRNSKYPQDLVMMEGKMMSYCTTGQMWARSSYLGAVFNLTSADHLYVNVSELSLVNFEESQTFFGLYKL
As to B1, the “Jurkat cell viability, single agent” value in assay [3] (MTT at 24 hours) was “dose-responsive cytotoxicity; also recorded: only Jurkat cells were sensitive to FasL”. In assay [4], the “OPM2 cell viability, single agent” value is on record as “sensitive to TRAIL but not FasL; also recorded: only Jurkat cells were sensitive to FasL”.

B2: TRAIL: death receptor agonist, extrinsic pathway activator (protein, UniProt P50591 1-281, looked up)
Tumor necrosis factor ligand …: MAMMEVQGGPSLGQTCVLIVIFTVLLQSLCVAVTYVYFTNELKQMQDKYSKSGIACFLKEDDSYWDPNDEESMNSPCWQVKWQLRQLVRKMILRTSEETISTVQEKQQNISPLVRERGPQRVAAHITGTRGRSNTLSSPNSKNEKALGRKINSWESSRSGHSFLSNLHLRNGELVIHEKGFYYIYSQTYFRFQEEIKENTKNDKQMVQYIYKYTSYPDPILLMKSARNSCWSKDAEYGLYSIYQGGIFELKENDRIFVSVTNEHLIDMDHEASFFGAFLVG
In the case of B2, in assay [3] (MTT at 24 hours), the “Jurkat cell viability, single agent” value is “dose-responsive cytotoxicity; also recorded: induced apoptosis”. Also, the “OPM2 cell viability, single agent” value in assay [4] is “sensitive to TRAIL; also recorded: induced apoptosis”.

(Values after patent US9079970B2, “Methods and compositions for specific modulation of MCL-1” (Dana Farber Cancer Institute, Inc., priority 2008, dated 2015).)
